Measured values: patent US11833144B2, “Treating autoimmune disease” (Mayo Foundation for Medical Education and Research, priority 2020, dated 2023)

Columns and labels:
[1] = system: murine B cells; assay: Murine B cell proliferation (CellTrace Violet, cell number) and class switch to IgG1 in vitro; format: cell-based, mouse; settings: for rescue of proliferation and IgG1 class switch upon SSI-4 treatment: SSI-4 with exogenous fatty acid; for B cell proliferation, exogenous fatty acid alone / IgG1 class switch, exogenous fatty acid alone / proliferation of mouse B cells (CTV dilution): LPS/IL-4 activated; for B cell proliferation, exogenous fatty acid alone / IgG1 class switch, exogenous fatty acid alone: fatty acid-BSA conjugate, no inhibitor; for proliferation of mouse B cells (CTV dilution): SCD inhibitor alone
Method: Mouse B cells were isolated from pooled single cell suspensions of spleen and peripheral lymph nodes using CD19 Microbeads (Miltenyi) or Mouse B cell Isolation Kit (Stemcell Technologies). B cells were stimulated with LPS (10 μg/mL; Sigma-Aldrich) and recombinant IL-4 cytokine (10 ng/mL; Tonbo Bioscience) with or without SCD inhibitor SSI-4, and proliferation was measured by dilution of CellTrace Violet proliferation dye (Thermo Fisher Scientific). B cells were also stimulated with anti-IgM (10 μg/mL; Jackson ImmunoResearch), anti-CD40 (10 μg/mL; BioXcell) and IL-4 (10 ng/mL; Tonbo Bioscience), or TLR ligand CpG (2.5 μM; IDT), recombinant IL-4 and IL-5 (10 ng/mL; Tonbo Bioscience) cytokines. To test the function of monounsaturated and saturated fatty acids, B cells were activated in presence of exogenous fatty acid-BSA conjugate. Palmitoleic acid (NU-CHEK PREP, INC), palmitic acid (NU-CHEK PREP, INC), stearic acid (NU-CHEK PREP, INC) were conjugated with fatty acid free BSA (Sigma-Aldrich) as described elsewhere (Wang et al., Immunity 35:871-882 (2011)). Human B cells were activated with CpG OND2006 (2.5 μM; IDT), recombinant human cytokine IL-10 ([…]; Peprotech), IL-15 (10 ng/mL; Peprotech), IL-4 (10 ng/mL; Biolegend), IL-2 (10 unit/mL) and anti-human CD40 (1 μg/mL; BioXcell). Human B cell proliferation was measured by ^3[H]-thymidine incorporation (1 μCi/mL) (American Radiolabeled Chemicals). For analysis of surface markers, cells were stained in PBS containing 1% (w/v) bovine serum albumin on ice for 30 minutes, with anti-IgG1 (RMG1-1, Biolegend), anti-CD19 (ID3, Biolegend) anti-B220 (RA3-6B2, Biolegend), anti-CD4 (GK1.5, Biolegend), anti-CD8 (53-6.7, Biolegend), anti-CD25 (PC16, Biolegend), anti-GL7 (GL-7, Biolegend), anti-CD95 (Jo2, BD Biosciences), anti-CD138 (281-2, Biolegend), anti-IgD (11-26c.2a, Biolegend), anti-PD-1 (J43, ThermoFisher), anti-IgM (II/41, ThermoFisher). Antigen specific GC response was detected with tetramer NP-phycoerythrin conjugated with PE (Biosearch Technologies). CXCR5 was stained with biotinylated anti-CXCR5 (2G8) followed by staining with streptavidin-conjugated PE (both from BD Biosciences). Cell viability was assessed using the Fixable Dye Ghost 510 (Tonbo Bioscience) or Annexin V cell apoptosis kit with 7-AAD (ThermoFisher) following the manufacturer's protocol. Phosflow staining for phospho-S6 (S235/236) was performed using Phosflow Fix/Perm kit (BD Biosciences). Mitochondrial potential was measured by staining with 20 nM TMRM (ThermoFisher) following manufacturer's instructions. Flow cytometry was performed on the LSR II, LSR Fortessa (BD Biosciences) or Attune NxT (ThermoFisher) cytometers, and analysis was performed using FlowJo software (Tree Star).

[2] = system: activated murine B cells; assay: Seahorse OCR / ECAR in activated murine B cells; format: cell-based, mouse; settings: exogenous fatty acid, 48 h
Method: (§1) The bioenergetic activities of the OCR and ECAR were measured using a Seahorse XFe96 Extracellular Flux Analyzed following established protocols (Agilent). Briefly, B cells were seeded at 200,000 cells/well on Cell-Tak (Corning) coated XFe96 plate with fresh XF media (Seahorse XF RPMI medium containing 10 mM glucose, 2 mM L-glutamine, and 1 mM sodium pyruvate, PH 7.4; all reagents from Agilent). OCR was measured in the presence of Oligomycin (1.5 μM; Sigma-Aldrich), FCCP (1.5 μM; Sigma-Aldrich), and Rotenone (1 μM; Sigma-Aldrich)/Antimycin A (1 μM; Sigma-Aldrich) in Mito Stress assay. For ECAR measurement, B cells were seeded in XFe96 plate with fresh Seahorse XF RPMI medium with 2 mM L-glutamine (PH 7.4), and treated with glucose (10 mM; Agilent), Oligomycin (1.5 and 2-DG (50 mM; Sigma-Aldrich) orderly in Glycolysis Stress assay.

[3] = system: activated human B cells; assay: Seahorse OCR / ECAR in activated human B cells; format: cell-based; settings: exogenous fatty acid, 72 hours
Method: as §1

CCCCCCCCCCCCCCCC(=O)O [PA, palmitic acid]
rescue of proliferation and IgG1 class switch upon SSI-4 treatment ([1]; LPS/IL-4): no rescue effects | B cell proliferation, exogenous fatty acid alone [1]: unable to promote | IgG1 class switch, exogenous fatty acid alone [1]: unable to promote

CCCCCCCCCCCCCCCCCC(=O)O [SA, stearic acid]
rescue of proliferation and IgG1 class switch upon SSI-4 treatment ([1]; LPS/IL-4): no rescue effects | B cell proliferation, exogenous fatty acid alone [1]: unable to promote | IgG1 class switch, exogenous fatty acid alone [1]: unable to promote

CCOC(=O)[C@@]1(CCCCCCOc2ccc(Cl)cc2)CO1 [etomoxir, reference compound]
effect of OA treatment on class switch in presence of etomoxir ([1]; OA plus etomoxir 40 μM, 72 hours): negated the effects of OA treatment | B cell class switch to IgG1 ([1]; etomoxir 40 μM, LPS/IL-4, 72 hours): reduced B cell class switch

CCCCCC/C=C\CCCCCCCC(=O)O [PO, palmitoleic acid]
rescue of proliferation and IgG1 class switch in SCD1/2 deficient B cells ([1]; B cells from Scd1 and Scd2 deficient mice, LPS/IL-4): partial rescue effect | rescue of proliferation and IgG1 class switch upon SSI-4 treatment ([1]; LPS/IL-4): substantial, but incomplete, rescue effects | IgG1 class switch, exogenous fatty acid alone [1]: did not improve class switch | OCR upon LPS/IL-4 stimulation in mouse B cells [2]: did enhance OCR | B cell respiration (OCR) ([2]; CpG/IL-4/IL-5 (PO: CpG and anti-IgM/anti-CD40) stimulation): did not promote respiration | respiration (OCR) in activated human B cells [3]: did enhance OCR

Cn1cnc(N)c2ncnc1-2 [3-MA, 3-methyladenine, reference compound]
rescue of B cell proliferation and class switch to IgG1 in the presence of SSI-4 ([1]; 3-MA 1 mM, wortmannin 1 μM): successfully rescued

CNC(=O)c1cccc(NC(=O)N2CCC(Oc3ccccc3Cl)CC2)c1 [A939572, reference compound]
proliferation of mouse B cells (CTV dilution) [1]: capable of inhibiting B cell proliferation

Cc1nnc(-c2ccc(N3CCC(Oc4ccccc4C(F)(F)F)CC3)nn2)s1 [MF438, reference compound]
proliferation of mouse B cells (CTV dilution) [1]: capable of inhibiting B cell proliferation
